The nature of series [1]: Solubility of candesartan cilexetil dispersions in 0.1N HCl. Type of series: physicochemical. To be noted: simulated gastric fluid.
A short description of series [2]: Solubility of eprosartan mesylate solid dispersions in 0.1N HCl. It is filed as physicochemical. To be noted: simulated gastric fluid, thermodynamic from solid.
For series [3] the following is noted: 0.1N HCL with 0.5% SLS, USP Type II, 50 RPM.
For series [4] the following is noted: background statement in detailed description; cited from earlier work.

In brackets after ≈: the same amount, converted by molar mass. Where a name gives a salt, the structure may show the parent alone. Read-outs that look alike come from different tables or passages of the source.

A word on the solubility: it is the dissolved amount per volume that the medium holds. Compound `CCOc1nc2cccc(C(=O)OC(C)OC(=O)OC3CCCCC3)c2n1Cc1ccc(-c2ccccc2-c2nnn[nH]2)cc1` (centres unmarked) [Candesartan cilexetil, candesartan cilexetil] gave a solubility in series [1] of 0.51 µg/mL (≈ 0.835 µM).
`CCCCc1ncc(/C=C(\Cc2cccs2)C(=O)O)n1Cc1ccc(C(=O)O)cc1` [Eprosartan mesylate, eprosartan mesylate] displayed a solubility in series [2] of 712 µg/mL.
As for `CCCCC(=O)N(Cc1ccc(-c2ccccc2-c2nnn[nH]2)cc1)[C@H](C(=O)O)C(C)C` [Valsartan, valsartan], the “% Cum. Dissolved” value in series [3] (0 minutes) is 0%; in series [3] (5 minutes) it was 1.0%; in series [3] (10 minutes), 4.1%; in series [3] (15 minutes), 6.7%; in series [3] (30 minutes) it was 6.5%; in series [3] (60 minutes), 9.7%. Further, the “% Cum. Dissolved” value in series [3] (120 minutes) was determined as 15.7%; in series [3] (120 minutes, listed as pure valsartan), 15%. The bioavailability in series [4] was 10-25%.
